Measured values: patent publication US20110053773A1, “METHODS OF IMPROVING NUTRITIONAL VALUE OF PLANTS” (UNIVERSITY OF TENNESSEE RESEARCH FOUNDATION, priority 2009, published 2011)

Assays:
[1] = tested on: kale 'Red Russian'; assay: Content analysis of kale: protein, amino acids, fiber, fatty acids, minerals (Example 4, Tables 12-14); assay type: in vivo; conditions: 28 DA-A
Outline: (§1)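 Plants were harvested about 4 weeks post-treatment and pooled across replicates to analyse protein, amino acids, fiber, fatty acids and minerals (Na, Ca, P, Mg, K, Fe, Mn, Zn, Cu). Treatments were postemergence insecticide, fungicide, PGRs and safeners. Visual injury scored 0–100% (phytotoxicity, chlorosis, stunting).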

[2] = tested on: basil 'Genovese'; assay: Visual injury of basil after insecticide, fungicide, PGRs, safeners (Example 4)
Outline: as §1

[3] = first-listed rate g ai/ha: chlropyrifos ###, chlorothalonil ###, paclobutrazol 3.2, mepiquat-chloride 12, + NIS 0.3 % v/v
[4] = rates g ai/ha: chlropyrifos 1120, chlorothalonil 2630, paclobutrazol 3.23, mepiquat-chloride 12.3, + NIS 0.25 % v/v
[5] = rates g ai/ha: chlropyrifos 3370, chlorothalonil 7900, paclobutrazol 9.7, mepiquat-chloride 37, + NIS 0.25 % v/v
[6] = second-listed rate g ai/ha: chlropyrifos ###, chlorothalonil ###, paclobutrazol 9.7, mepiquat-chloride 37, + NIS 0.3 % v/v
[7] = 7 DA-A, rates g ai/ha: chlropyrifos 1120, chlorothalonil 2630, paclobutrazol 3.23, mepiquat-chloride 12.3, Isoxadifen 8, Napthalic anhydride 264, + NIS 0.25 % v/v
[8] = 7 DA-A, rates g ai/ha: chlropyrifos 3370, chlorothalonil 7900, paclobutrazol 9.7, mepiquat-chloride 37, Isoxadifen 16, Napthalic anhydride 527, + NIS 0.25 % v/v
[9] = 14 DA-A, rates g ai/ha: chlropyrifos 1120, chlorothalonil 2630, paclobutrazol 3.23, mepiquat-chloride 12.3, Isoxadifen 8, Napthalic anhydride 264, + NIS 0.25 % v/v
[10] = 14 DA-A, rates g ai/ha: chlropyrifos 3370, chlorothalonil 7900, paclobutrazol 9.7, mepiquat-chloride 37, Isoxadifen 16, Napthalic anhydride 527, + NIS 0.25 % v/v
[11] = 28 DA-A, rates g ai/ha: chlropyrifos 1120, chlorothalonil 2630, paclobutrazol 3.23, mepiquat-chloride 12.3, Isoxadifen 8, Napthalic anhydride 264, + NIS 0.25 % v/v
[12] = 28 DA-A, rates g ai/ha: chlropyrifos 3370, chlorothalonil 7900, paclobutrazol 9.7, mepiquat-chloride 37, Isoxadifen 16, Napthalic anhydride 527, + NIS 0.25 % v/v

## N#Cc1c(Cl)c(Cl)c(Cl)c(C#N)c1Cl [chlorothalonil]
[1]; [3]
  Threonine, Percent Increase over the Untreated Check (on a % dry matter basis): 3 % check
  Total Amino acids, Percent Increase over the Untreated Check (on a % dry matter basis): 3 % check
  Total Protein, Percent Increase over the Untreated Check (on a % dry matter basis): 1 % check
  Valine, Percent Increase over the Untreated Check (on a % dry matter basis): 4 % check
[1]; [4]
  ADF, Percent Increase Over the Untreated Check (on a % dry matter basis): 9 % check
  Calcium, Percent Increase Over the Untreated Check (on a % dry matter basis): −6 % check
  Copper, Percent Increase Over the Untreated Check (on a % dry matter basis): 6 % check
  Iron, Percent Increase Over the Untreated Check (on a % dry matter basis): −1 % check
  Magnesium, Percent Increase Over the Untreated Check (on a % dry matter basis): −3 % check
  Manganese, Percent Increase Over the Untreated Check (on a % dry matter basis): 3 % check
  NDF, Percent Increase Over the Untreated Check (on a % dry matter basis): −8 % check
  Phosphorous, Percent Increase Over the Untreated Check (on a % dry matter basis): 0 % check
  Potassium, Percent Increase Over the Untreated Check (on a % dry matter basis): −9 % check
  Sodium, Percent Increase Over the Untreated Check (on a % dry matter basis): 4 % check
  Zinc, Percent Increase Over the Untreated Check (on a % dry matter basis): −4 % check
[1]; [5]
  ADF, Percent Increase Over the Untreated Check (on a % dry matter basis): 0 % check
  Calcium, Percent Increase Over the Untreated Check (on a % dry matter basis): −1 % check
  Copper, Percent Increase Over the Untreated Check (on a % dry matter basis): 6 % check
  Iron, Percent Increase Over the Untreated Check (on a % dry matter basis): −3 % check
  Magnesium, Percent Increase Over the Untreated Check (on a % dry matter basis): −3 % check
  Manganese, Percent Increase Over the Untreated Check (on a % dry matter basis): 4 % check
  NDF, Percent Increase Over the Untreated Check (on a % dry matter basis): −5 % check
  Phosphorous, Percent Increase Over the Untreated Check (on a % dry matter basis): −3 % check
  Potassium, Percent Increase Over the Untreated Check (on a % dry matter basis): −3 % check
  Sodium, Percent Increase Over the Untreated Check (on a % dry matter basis): 23 % check
  Zinc, Percent Increase Over the Untreated Check (on a % dry matter basis): −3 % check
[1]; [6]
  Alanine, Percent Increase over the Untreated Check (on a % dry matter basis): −5 % check
  Aspartic acid, Percent Increase over the Untreated Check (on a % dry matter basis): −4 % check
  Cysteine, Percent Increase over the Untreated Check (on a % dry matter basis): −6 % check
  Glutamic acid, Percent Increase over the Untreated Check (on a % dry matter basis): −5 % check
  Glycine, Percent Increase over the Untreated Check (on a % dry matter basis): −7 % check
  Iso-leucine, Percent Increase over the Untreated Check (on a % dry matter basis): −2 % check
  Leucine, Percent Increase over the Untreated Check (on a % dry matter basis): −1 % check
  Lysine, Percent Increase over the Untreated Check (on a % dry matter basis): −3 % check
  Methionine, Percent Increase over the Untreated Check (on a % dry matter basis): −2 % check
  Proline, Percent Increase over the Untreated Check (on a % dry matter basis): −3 % check
  Threonine, Percent Increase over the Untreated Check (on a % dry matter basis): −1 % check
  Total Amino acids, Percent Increase over the Untreated Check (on a % dry matter basis): −4 % check
  Total Protein, Percent Increase over the Untreated Check (on a % dry matter basis): −3 % check
  Valine, Percent Increase over the Untreated Check (on a % dry matter basis): −3 % check
[2]; [7]
  Phytotoxicity Chlorosis: 5%
  Phytotoxicity General: 5%
  Phytotoxicity Stunting: 5%
[2]; [8]
  Phytotoxicity Chlorosis: 15%
  Phytotoxicity General: 3%
  Phytotoxicity Stunting: 5%
[2]; [9]
  Phytotoxicity Chlorosis: 5%
  Phytotoxicity General: 0%
  Phytotoxicity Stunting: 8%
[2]; [10]
  Phytotoxicity Chlorosis: 5%
  Phytotoxicity General: 2%
  Phytotoxicity Stunting: 7%
[2]; [11]
  Phytotoxicity Chlorosis: 5%
  Phytotoxicity General: 10%
  Phytotoxicity Stunting: 7%
[2]; [12]
  Phytotoxicity Chlorosis: 10%
  Phytotoxicity General: 3%
  Phytotoxicity Stunting: 10%
